The target in one data set is T1, human MRGPRX2 (Homo sapiens, UniProt Q96LB1).
T1 construct: expressed in transfected cells
T1 sequence (Q96LB1 1-330): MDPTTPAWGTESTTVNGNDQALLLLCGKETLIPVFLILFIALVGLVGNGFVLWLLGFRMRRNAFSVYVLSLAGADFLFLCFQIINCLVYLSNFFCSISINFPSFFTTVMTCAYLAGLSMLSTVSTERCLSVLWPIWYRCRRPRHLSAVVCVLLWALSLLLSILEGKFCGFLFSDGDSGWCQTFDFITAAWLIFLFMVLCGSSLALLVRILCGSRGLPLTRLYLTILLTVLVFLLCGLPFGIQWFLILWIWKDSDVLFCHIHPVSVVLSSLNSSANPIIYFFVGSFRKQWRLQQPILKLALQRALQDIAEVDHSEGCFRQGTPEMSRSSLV
Description: MRGPRX2 activity: IP-One HTRF antagonist assay in CHO cells versus Cortistatin-14. In kind it is cell-based. The following applies: CHO cells stably expressing human MRGPRX2; versus 0.3 uM Cortistatin-14 agonist; IP-1 HTRF. The method, boiled down:
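CHO cells stably expressing human MRGPRX2 received compound as a 10-point curve (30 uM top, 1:3 dilutions) plus 0.3 μM Cortistatin-14 in LiCl buffer, pH 8. Incubation 1 h at 37 °C, then 1 h at room temperature. IP-1 accumulation read by HTRF; IC50 from ratio curves, reported as activity bins.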
Background: Time-resolved FRET reads energy transfer from a long-lived donor to a nearby acceptor.

Data set [1] can be described thus: Mouse Pharmacokinetics Studies (50 mg/kg oral gavage, plasma LC-MS/MS). In kind it is in vivo. The following applies: Male C57BL/6 mice, non-fasted; for AUC(0-t) / Cmax / Tmax: mouse; for Tmax: read-out: PK: Tmax. As for the experimental part:
Compounds were formulated in 5% DMSO, 5% Solutol, and 90% PBS without Ca and Mg (pH 7.4) at a concentration of 5 mg/mL. Male C57BL/6 mice (n=3/compound) were administered a 50 mg/kg dose of each compound by oral gavage under a non-fasted condition. Blood samples were collected via the saphenous vein onto K2-EDTA at 0.25, 0.5, 1, 2, 4, 8 and 24 hours after dosing, and plasma was prepared and stored at −80° C. until analysis. Plasma sample preparation for analysis was done by protein precipitation using acetonitrile (including Verapamil as an internal standard) followed by centrifugation. Compound concentrations were determined in extracted plasma using LC-MS/MS relative to a 12-point standard curve covering the 1 to 4000 nM range. Non-compartmental analysis using Phoenix WinNonlin was used to estimate pharmacokinetic parameters including area under the curve, clearance, and half-life. The administered dose was confirmed by analysis of residual dosing material by UPLC-UV relative to a single point calibration sample.

The next data set deals with Human LAD2 cells. In words: Mast Cell Beta-Hexosaminidase Release Assay. The following applies: 500 nM Cortistatin-14, read-out: MRGPRX2 Antagonist Activity. In kind it is cell-based. How it is done: Human LAD2 cells (NIH) were maintained in an incubator at 37° C. with 5% CO2 and cultured in StemPro-34 serum-free media (Gibco 10639011) supplemented with 2 mM L-glutamine, 100 U/ml penicillin, […] streptomycin and 100 ng/ml SCF (Invitrogen PEP0860), at a concentration of 2-5×10^5 cells/mL, with hemidepletion every 1-2 weeks.
Cells were transferred to SCF-Free medium at 2.5×10^5 cells/mL and kept in an incubator overnight. On the day of the assay, cells were washed twice in Assay Buffer (final concentrations 10 mM HEPES, 137 mM NaCl, 5.6 mM D-glucose, 2.7 mM KCl, 1 mM MgCl, 1.8 mM CalCl2, 0.4 mM Na2HPO4·7H2O, 0.04% BSA, pH=7.4) and plated in a 96-well v-bottom plate at 20,000 cells per well in 80 μL Assay Buffer. Antagonist compounds solubilized at 10 mM in DMSO were diluted in Assay Buffer to 10× final desired concentrations as a 10-point curve (10 μM final top concentration with 1:3 serial dilutions) and 10 μL added per well. Plates were then incubated for 1 hour at 37° C. Agonists were diluted in Assay Buffer to 10× desired concentrations and 10 μL of the appropriate agonist added to each well. The final concentration of Cortistatin-14 (Tocris 3374) used in antagonist assays was 500 nM. Final concentrations of DMSO were kept consistent across the plate. Plates were then incubated in a warm air oven for 30 minutes at 37° C., followed by centrifugation at 4° C. for 5 minutes at 450×g. 50 μL supernatant from each well was then transferred to a 96-well flat bottom plate containing 100 μL substrate solution per well (3.5 mg/mL p-Nitrophenyl-N-acetyl-β-D-glucosaminide (Sigma 487052) in Citrate Buffer containing a final concentration of 40 mM Citric Acid, 20 mM Na2HPO4·7H2O, pH=4.5). To the cell pellets left in the remaining assay buffer, 150 μL 0.1% Triton-X-100 was then added to each well, resuspended by pipetting up and down, and 50 μL cell lysates transferred to a second 96-well flat bottom plate containing 100 μL substrate solution per well. Plates containing transferred supernatant and cell lysates were then incubated in a warm air oven for 90 minutes at 37° C. After incubation, 50 μL of 400 mM Glycine buffer (pH 10.7) was added into each well and the plate was read on a Molecular Devices SpectraMax iD5 plate reader (absorbance at 405 nm with reference filter at 620 nm). After background subtraction, the percentage degranulation (percent beta-hexosaminidase release) was calculated as 100×(supernatant values)/(supernatant+lysate values), followed by analysis using GraphPad Prism software to calculate an IC50 value for each compound.
The activity ranges are denoted as follows: “+++++” denotes antagonist activity <100 nM; “++++” denotes antagonist activity between 100 and 500 nM; “+++” denotes activity between 501 and 1000 nM; “++” denotes activity between 1001 and 2500 nM; and “+” denotes activity >2500 nM.

For orientation: AUC(0-t) means the area under the concentration-time curve up to a stated or last time point. By Cmax is commonly meant the peak of the concentration-time curve. As usually defined, the Tmax is the time at which the peak concentration occurs. The molecule `O=C(N[C@@H]1CCC[C@H](Nc2cc(C(F)(F)F)nc3ccc(Cl)cc23)C1)c1cn(CC(F)(F)F)nc1Cl` [Example 30, 3-chloro-N-((1R,3S)-3-((6-chloro-2-(trifluoromethyl)quinolin-4-yl)amino)cyclohexyl)-1-(2,2,2-trifluoroethyl)-1H-pyrazole-4-carboxamide] came in with an IC50 on human MRGPRX2 below 100 nM. For the same molecule, in data set [1], the “AUC 0-24” value worked out at 150 µM·h, the AUC(0-t) came to 150 µM·h, the peak level (Cmax) was 13 µM and the time of peak concentration (Tmax) came to 0.5 h. The IC50 in the data set on Human LAD2 cells was below 100 nM.
Molecule `CC(C)(O)Cn1cc(C(=O)N[C@@H]2CCC[C@H](Nc3cc(C(F)(F)F)nc4ccc(Cl)cc34)C2)c(Cl)n1` [Example 31, 3-chloro-N-[(1R,3S)-3-[[6-chloro-2-(trifluoromethyl)-4-quinolyl]amino]cyclohexyl]-1-(2-hydroxy-2-methylpropyl)pyrazole-4-carboxamide] showed an IC50 on human MRGPRX2 below 100 nM. Also, in data set [1], the “AUC 0-24” value came out at 740 µM·h, the AUC(0-t) amounted to 740 µM·h, the concentration peaked (Cmax) at 74 µM and the Tmax worked out at 1.7 h. Further, the IC50 in the data set with Human LAD2 cells is below 100 nM.
Regarding `N#Cc1nn(CC(F)(F)F)cc1C(=O)N[C@@H]1CCC[C@H](Nc2cc(C(F)(F)F)nc3ccc(Cl)cc23)C1` [Example 32, N-[(1R,3S)-3-[[6-chloro-2-(trifluoromethyl)-4-quinolyl]amino]cyclohexyl]-3-cyano-1-(2,2,2-trifluoroethyl)pyrazole-4-carboxamide], the IC50 on human MRGPRX2 was below 100 nM. Also, in data set [1], the “AUC 0-24” value came to 390 µM·h, the AUC(0-t) is 390 µM·h, the peak level (Cmax) was 39 µM and the Tmax was found to be 4.7 h. In the data set with Human LAD2 cells, the IC50 is below 100 nM.

These data come from patent publication US12129244B2, “Modulators of Mas-related G-protein receptor X2 and related products and methods” (Escient Pharmaceuticals, Inc., priority 2022, dated 2024).
